From EP3722295A1, “ANTI-VIRAL AND ANTI-CANCER ACTIVITY OF PYRIDO[2,3-D]PYRIMIDINE AND OXADIAZIOLE COMPOUNDS” (priority 2019, dated 2020)
Read-outs that look alike come from different tables or passages of the source.

Experiments:
RSV-Firefly virus = test: RSV-Firefly replication assay (specificity control); format: cell-based, human Respiratory Syncytial Virus
FOS:JUN = molecular target: T1, FOS:JUN (Homo sapiens, UniProt P01100+P05412); test: FOS:JUN split luciferase interaction assay (specificity control); format: cell-based
T1 construct: expressed in transfected cells

RED-SMU1 complex = RED-SMU1 complex (Homo sapiens, UniProt Q2TAY7); test: In cellulo split luciferase-based RED-SMU1 interaction assay; format: cell-based; conditions: for inhibition at 60 µM: A549 cells, relative to DMSO
viral NS1 mRNA = test: NS1 mRNA splicing, quantitative real-time PCR; format: cell-based, influenza A/WSN/33; conditions: WSN-infected A549 cells, 60 µM, 6 h incubation
Protocol: (§1) Total RNA and poly(A)+ RNAs were extracted subsequently using the RNeasy Mini Kit (Qiagen) and Oligotex mRNA Mini kit (Qiagen), following the manufacturer's protocol. Reverse transcription (RT) was performed on 5-10 ng of total mRNA (or poly(A)+ RNA equivalent) using the Maxima First Strand cDNA Synthesis Kit (Thermo Scientific). Quantitative real-time PCR was performed on 2 µl of a 1/10 dilution of the RT reaction using the Luminaris Color Probe qPCR Master Mix (Thermo Scientific) and a Light Cycler 480 (Roche). The levels of NS1/NS2 and M1/M2 mRNAs were determined and normalized with respect to GAPDH mRNA levels using the protocol described in (23). The levels of PB2/PB2-S1 mRNAs were determined by semi-quantitative RT-PCR as described in (35).

viral M1 mRNAs = test: M1 mRNA splicing, RT-qPCR; format: cell-based, influenza A/WSN/33; conditions: WSN-infected A549 cells, 60 µM
Protocol: as §1

PB2 mRNA = PB2 mRNA splicing, semi-quantitative RT-PCR; format: cell-based, influenza A/WSN/33; conditions: WSN-infected A549 cells, 60 µM
Protocol: as §1

A549 cells = test: Cell viability assay (CellTiter-Glo, ATP levels) and observation of cell monolayers; format: cell-based, human
Protocol: Cell viability was assessed using the CellTiter-Glo® One Solution Assay kit (Promega) according to the manufacturer's instruction.

[1] = molecular target: T2, endogenous RED-SMU1 complex (Homo sapiens, UniProt Q2TAY7); test: Western blot of steady-state levels of endogenous RED and SMU1 proteins; format: cell-based
T2 construct: Effect on the steady-state levels of the endogenous RED and SMU1 proteins; endogenous in cells; host or cells: A549

WSN-PB2-Nanoluc virus = format: cell-based, influenza A/WSN/33
WSN virus = test: Production of infectious particles in A549 cells, plaque assay; format: cell-based, influenza A/WSN/33; conditions: 60 µM

T1 sequence (P01100 whole entry): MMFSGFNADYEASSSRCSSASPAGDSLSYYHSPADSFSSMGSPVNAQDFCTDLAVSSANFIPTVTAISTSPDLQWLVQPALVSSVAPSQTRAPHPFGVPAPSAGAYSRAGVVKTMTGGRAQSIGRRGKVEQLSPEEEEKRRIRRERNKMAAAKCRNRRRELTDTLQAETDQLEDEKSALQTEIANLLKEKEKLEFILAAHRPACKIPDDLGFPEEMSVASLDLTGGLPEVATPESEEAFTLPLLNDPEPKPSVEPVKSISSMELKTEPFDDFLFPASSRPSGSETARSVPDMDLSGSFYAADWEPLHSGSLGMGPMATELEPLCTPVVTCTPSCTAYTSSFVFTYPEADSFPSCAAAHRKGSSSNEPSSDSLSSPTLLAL
T1 sequence (P05412 whole entry): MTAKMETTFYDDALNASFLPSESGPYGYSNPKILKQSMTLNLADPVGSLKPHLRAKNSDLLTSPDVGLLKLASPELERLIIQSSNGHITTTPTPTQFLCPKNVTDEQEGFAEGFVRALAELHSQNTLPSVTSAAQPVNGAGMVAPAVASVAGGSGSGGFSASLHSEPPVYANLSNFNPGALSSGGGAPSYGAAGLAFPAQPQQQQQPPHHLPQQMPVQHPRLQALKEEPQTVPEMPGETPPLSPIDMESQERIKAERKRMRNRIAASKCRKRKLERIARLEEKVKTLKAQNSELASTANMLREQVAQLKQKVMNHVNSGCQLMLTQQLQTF

Compound | RSV-Firefly signals (RSV-Firefly virus; A549 cells, 7.5 - 60 µM, 24 hpi) | effect in FOS:JUN interaction assay (FOS:JUN; specificity control, same concentrations as RED-SMU1 assay) | inhibition at 60 µM (RED-SMU1 complex) | reduction of NS2 to NS1 mRNA ratio (viral NS1 mRNA) | splicing of the viral M1 mRNAs (viral M1 mRNAs) | PB2 mRNA splicing (PB2 mRNA) | logP (physchem) | RSV-Firefly signals (RSV-Firefly virus) | growth of the tumoral cell line A549 (A549 cells) | cytotoxicity / cytostatic effect (A549 cells; A549 cells, 15, 30 and 60 µM, 24 and 48 hours of incubation) | effect in FOS:JUN interaction assay (FOS:JUN) | EC50 (RED-SMU1 complex) | Expression levels of RED and SMU1 proteins [1] | reduction of WSN-Nanoluc signals (WSN-PB2-Nanoluc virus) | reduction of production of WSN infectious particles (WSN virus; 24 hpi) | reduction of production of WSN infectious particles (WSN virus; 48 hpi) | reduction of production of WSN infectious particles (WSN virus; 72 hpi) | inhibition of viral growth (WSN-PB2-Nanoluc virus)
COc1cc(OC)cc(-c2cc3cnc(NCc4cn(C5CCN(Cc6ccccc6)CC5)nn4)nc3nc2NC(=O)NC(C)(C)C)c1 [LSP641] | only moderate reductions | none of the two compounds showed any significant effect | 40% | 30% | did not inhibit | not affected |  |  |  |  |  |  |  |  |  |  |  | 
C#CCCCNc1ncc2cc(-c3cc(OC)cc(OC)c3)c(NC(=O)NC(C)(C)C)nc2n1 [LSP61] |  |  | 90% | 50% | did not inhibit | not affected | 4.8 | only moderate reductions | inhibits the growth | no cytotoxicity but some cytostatic effect | none of the two compounds showed any significant effect | ~15 µM | decreased | 25 fold | about 1000 fold | ~100 fold | ~10 fold | 
CCN(CC)CCCCNc1ncc2cc(-c3cc(OC)cc(OC)c3)c(NC(=O)NC(C)(C)C)nc2n1 [PD173074, reference compound] |  |  |  |  |  |  |  |  |  |  |  |  |  |  |  |  |  | did not inhibit viral growth as efficiently as LSP61
